Measurements: US20210299162A1, “MOLECULAR HYDROGEN-CONTAINING COMPOSITION FOR PREVENTION AND/OR IMPROVEMENT OF ENCEPHALITIS AND/OR MENINGITIS AND SYMPTOM ASSOCIATED WITH THE ENCEPHALITIS AND/OR MENINGITIS” (MiZ Company Limited, priority 2020, published 2021)

Assays:
[1] = room temperature, normal pressure; also printed as 1.6 mg/L; cited from earlier work
meningococcal meningitis = details: person
Protocol: The case patient is person. The patient presenting with pyrexia and disturbance of consciousness was admitted to hospital urgently. […] The patient initiated inhalation, which was performed for one to three hours per day for one month using a hydrogen gas generator “Jobs-α” (a hydrogen concentration, 4% to 6%; generation rate of hydrogen gas, 200 mL/min) manufactured by MiZ Company Limited.

SMILES | concentration dissolved in water (solubility) [1] | clinical course (meningococcal meningitis; relapse after ceftriaxone, inhalation one to three hours per day for one month, hydrogen concentration 4% to 6%, 200 mL/min (Jobs-α)) | brain MRI (ventriculitis) (meningococcal meningitis; after hydrogen inhalation one to three hours per day for one month, hydrogen concentration 4% to 6%) | symptoms (pyrexia, disturbance of consciousness) (meningococcal meningitis; administered for 17 days) | course after completion of the administration (meningococcal meningitis; after 17 days of administration)
[HH] [hydrogen, molecular hydrogen] | approximately 1.6 ppm | began to improve | improvement of ventriculitis | – | –
CO/N=C(\C(=O)N[C@@H]1C(=O)N2C(C(=O)O)=C(CSc3nc(=O)c(=O)[nH]n3C)CS[C@H]12)c1csc(N)n1 [Ceftriaxone, reference compound] | – | – | – | resolved symptoms | relapse
